Source: paper PMC8362126, “Proteolysis Targeting Chimera (PROTAC) for Macrophage Migration Inhibitory Factor (MIF) Has Anti‐Proliferative Activity in Lung Cancer Cells” (Angewandte Chemie (International Ed. in English), 2021)
Entries after “also recorded” stand apart in the source; their conditions may differ.

Key:
ERK phosphorylation = ERK phosphorylation by western blot; format: cell-based, human; details: A549, 2 μM; 3 and 4 for 24 h, MD15 for 6, 24 or 48 h
Experimental: The effect of treatment with MIF‐directed PROTAC MD13 on MIF‐related signaling pathways was investigated by assessment of ERK phosphorylation using western blot analysis. […] Thus treatment with the MIF‐directed PROTAC MD13 inhibits ERK phosphorylation as a MIF‐related signaling event. […]
ERK signaling pathway study. A549 cells (2x10^5 cells per well) were seeded into each well of a 6-well plate with 2 mL RPMI-1640 medium containing 10% FBS (Costar Europe, Badhoevedorp, The Netherlands), and 1% penicillin/streptomycin solution (Corning). After overnight culturing, the cells were treated with MD13, MD15, or DMSO for the time indicated.
After that, cells were lysed by RIPA buffer containing 1× PhosSTOP and protease inhibitor (PI) cocktail (Roche, Mannheim, Germany). The BCA Protein Assay Kit (Pierce, Rockford IL, USA) was used to determine the protein concentration. 30 µg protein was separated by a pre-cast 10% NuPAGE Bis-Tris gel (Invitrogen, USA) and then transferred to a polyvinylidene difluoride (PVDF) membrane. After blocking with 5% of skimmed milk for 1 hour at room temperature and incubation with the appropriate primary antibody (pERK, #9101, Cell Signaling, 1:1000; GAPDH, #97166, Cell Signaling, 1:10000) overnight at 4 °C, the membrane was treated with an HRP-conjugated secondary goat anti-rabbit antibody (#P0448, Dako, 1:2000) or rabbit anti-mouse antibody (#P0260, Dako, 1:2000) at room temperature for 1 hour.
The protein bands were visualized with enhanced chemiluminescence (ECL) solution (GE Healthcare). The figures were quantified with imageJ software based on grayscale. […]

A549 cells = experiment: CyQUANT cell proliferation assay; format: cell-based, human; details: concentrations up to 20 μM, 72 hours
Experimental: S8. Cell growth, cell cycle and pERK signaling study
Cell proliferation was measured with the CyQUANT® Direct Cell Proliferation Assay Kit (Thermo Fisher, #C35011). A549 cells were cultured in 96-well plates at a density of 1,000 cells/well and treated with different concentrations of MIF PROTAC (0.02-20 μM) for 72 h.
Cells were incubated with detection reagent (100 μL) for 60 min at 37 °C with 5% CO2. The fluorescence of each well was read at 485/535nm by plate reader (BioTek).
Figure S8. Cells were seeded with a density of 1000 cells per well in a 96-well plate. After overnight incubation, the cells were treated with various concentration of MD13 for 72 hours.
The resulting cells were quantified by CyQUANT® cell proliferation assays and compared with the vehicle (DMSO) control (n=3). […]
(also on this page, place not known: (0.02 -20 CO 2. (20 µM) 4 (20 µM) µM 20 µM 0.01 µM 0.08 µM 0.74 µM 6.7 µM 20 µM 0 50 100 Cell (%) H441 n.s. * * ** *** * n.s. MD15 96 -well MD13 proliferation control 96 -well round - 2 3) […]
(1 picture or pasted object on this page, not shown here)

A549 cell spheroids = experiment: 3D tumor spheroid assay; format: cell-based, human; details: 5 μM, 12 days
Experimental: A 3D spheroid model was employed to investigate the effect of longer term MD13 treatment in a more complex model for tumor growth. The 3D spheroid model was established using A549 cancer cells by a method adapted from Feng et al.[48] The spheroids were grown over a 12‐day period in absence or presence of PROTAC MD13. Each spheroid was prepared from about 1000 A549 cells. After three‐day incubation, these spheroids were treated with 1, 2, or 5 μM of MD13 with 72 hours intervals over 12 days. Spheroid growth was monitored by measuring the diameter and this was compared to day 0 of the treatment. The tumor spheroids in MD13 treated groups were significant smaller compared to the control group (Figure 5 B and Figure S9). With continuous exposure to 1, 2, or 5 μM of MD13 for 12 days, the growth of the spheroid tumor volume was inhibited by 42 %, 53 %, and 81 % compared with control group, respectively. […]
Tumor spheroid assay. A549 cells (1000 cells/well) were seeded onto a 96-well round-bottomed ultra low attachment plate (Corning). After 2 days of incubation without disturbance, the spheroid was treated with indicated compound every 3 days. […]
(1 picture or pasted object on this page, not shown here) […]
inverted microscope (Nikon Eclipse Ti) connected with a NIS-elements software. The data were analyzed and plotted with Graphpad Prism8. […]
cells were seeded in an ultralow attachment 96-well round-bottomed plate (1000 cells/well) to generate tumor spheroids (a single spheroid per well). After initiation, the spheroids were treated with different compounds at the indicated concentrations every three days. DMSO was used as vehicle control. The day of the first treatment was indicated as day 0. (A) Representative images were obtained at the indicated intervals using an inverted microscope. Scale bar: 500 μm. (B) Analysis was carried out using NIS-Elements AR 3.1 software, and growth curves were obtained relative to the untreated spheroids (day 0) and plotted with GraphPad Prism 8. Values are shown as means ± SD (n = 3 spheroids/time point, **p < 0.01 vs control). […]

MIF = molecular target: T1, MIF (Homo sapiens, UniProt P14174); experiment: MIF degradation in A549 cells, western-blot; format: cell-based; parameters: endogenous in cells; host or cells: A549 (ATCC CCL-185); details: A549 cells
T1 sequence (P14174 2-115 limits assumed): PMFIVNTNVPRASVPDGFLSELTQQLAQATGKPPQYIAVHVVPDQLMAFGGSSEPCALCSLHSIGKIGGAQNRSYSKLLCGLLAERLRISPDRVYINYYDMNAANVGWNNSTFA
Experimental: The concentration dependence of PROTAC MD13‐mediated induction of MIF degradation in A549 cells was investigated using western‐blot. […] The MIF levels were normalized to the vehicle treated control and plotted to the respective MD13 concentrations. This provided a DC50 of around 100 nM and a maximal degradation of around 90–95 % at concentrations higher than 1 μM (Figure 3 B). The DC50 of MD13 measured by ELISA assay was about 200 nM (Figure 3 C), which is in line with the result from western‐blot. […]
Cell lysates were prepared using the protocol described above. About 10−40 μg of total protein was mixed with the 4× Laemmli Loading Dye (250 mM Tris, pH 6.8, 40% glycerol, 5% SDS, 0.005% bromophenol blue, 4% β-mercaptoethanol) and heated at 95−100 °C for 5 min and loaded onto a 12% Bis-Tris gel (Bio-Rad Laboratories, #4561084) and proteins were separated at 120V. Afterwards, proteins were transferred to polyvinylidene fluoride (PVDF) membranes, subsequently non-specific antibody binding was blocked with 5% nonfat dry milk (BIO-RAD, #1706404) in TBST buffer and incubated overnight at 4 °C with one of the following primary antibodies: anti-MIF (1:1000, ThermoFisher, #PA5-27343 ) or anti-β-actin (1:10000 Cell Signalling, #8457). The membranes were further incubated with a goat anti-rabbit HRP-conjugated secondary antibody (1:2000, DAKO, p0448) for 2 h at room temperature. Proteins were visualized with an ECLTM Prime Western Blotting System (GE Healthcare #RPN2232). The immunoblot was generated by ChemiDoc MP Imaging Systems (Bio-Rad) and analyzed by the ImageJ software. […]
As a control, the same experiment was repeated and analyzed by a western-blot assay (Figure 3B). The potency estimated from the Western blot assay was 1 µM (Figure 3C), which is consistent with the result from the ELISA assay. The “Hook effect” […]

Compound: Nc1cccc2c1C(=O)N(C1CCC(=O)NC1=O)C2=O (centres unmarked) [compound 4, pomalidomide]
- effect on pERK levels (ERK phosphorylation): no significant decrease
- effect on cell proliferation (A549 cells): no effect; also recorded: no or little effect
- influence on spheroid tumor growth (A549 cell spheroids): no significant influence
- rescue of MD9 mediated MIF degradation (MIF; 2 hours pretreatment (1 100 µM, 3 50 µM, 4 50 µM, Bortezomib), then 10 µM MD9 12 h): partial to complete rescue; also recorded: rescued
- rescue of MD13 mediated MIF degradation (MIF; co-treatment (Bortezomib) or 1 hour pretreatment (3, 4) with MD13): rescued MIF from degradation; also recorded: able to abolish the MD13 triggered degradation
